pIC50: −log10 of the molar value.

By pIC50 is commonly meant the IC50 on a negative log10 scale, so that one unit is a factor of ten. Lower therefore signals a high IC50.

Series [1] can be described thus: Research of pharmacokinetic properties in SD rats (bioavailability). Format: in vivo. The settings on record: male SD rats; 1 mg/kg intravenous injection, 5 mg/kg by gavage. Here is the method: Research of Pharmacokinetic Properties in SD Rats
This example was intended to evaluate the PK properties of test compound, and calculate the bioavailability in male SD rats. Each test compound used six male SD rats, Six male SD rats were randomly divided into two groups. Three rats were respectively administrated with the dose of 1 mg/kg by intravenous injection; the whole blood was collected at 0.0833, 0.25, 0.5, 1, 2, 4, 6, 8 and 24 h after administration and plasma samples were prepared. The other three rats were respectively administrated with the dose of 5 mg/kg by gavage, the whole blood was collected at 0.25, 0.5, 1, 2, 4, 6, 8 and 24 h after administration, and plasma samples were prepared. the concentration of the test compound in the plasma was tested by LC/MS/MS method, and relevant PK parameters was calculated with Phoenix WinNonlin 6.2.1.
For the bioavailability data, see table 2.

The next series deals with PCSK9 (Homo sapiens (Human), UniProt Q8NBP7). Briefly: In vitro screening experiment (AlphaLISA anti-PCSK9, PCSK9-Huh7 cells). In kind it is cell-based. The settings on record: 20 h incubation, AlphaLISA reading. The method, then:
1) Preparation of 1× AlphaLISA test buffer solution:
2.5 ml of 10× AlphaLISA test buffer solution was added to 22.5 ml of Milli-Q water to produce the 1× AlphaLISA test buffer solution.
50 μL of 5 mg/mL Alpha LISA Anti-PCSK9 Acceptor beads and 50 μL of 500 nM Biotinylated Antibody Anti-PCSK9 were added to 9,900 μL of 1× AlphaLISA test buffer solution.
3) Preparation of 2× Streptavidin (SA) Donor beads (80 μg/mL):
200 μL of 5 mg/mL SA-Donor beads was added to 12,300 μL of 1× AlphaLISA test buffer solution.
3) 20 μL/pore mixture of 2.5× AlphaLISA Acceptor beads and Biotinylated Antibody Anti-PCSK9 was added, and incubated at 23° C. for 60 min.
4) 25 μL/pore 2× Streptavidin (SA) Donor beads were added; and incubated for 30 min at 23° C. (kept in dark place).
5) EnVision-Alpha Reader reading:
Date was analyzed with Prismsoftware (nonlinear regression (Sigmoidal dose-response-variable slope) Inhibition ratio %=100*(Sample reading−LC reading)/(HC reading−LC reading) Computational formula: […]

In the case of `O=C(c1ccc(-n2nnc3cccnc32)cc1)N(c1ncccc1Cl)[C@@H]1CCCNC1` [PF-06446846, reference compound], in series [1], the “F in rats (%)” value worked out at 20%. The compound `CC1(C)ON=C(c2ccc(C(=O)N(c3ncccc3Cl)[C@@H]3CCCNC3)cc2)C1=O` [WX001] had a pIC50 against PCSK9 of over 5.00. Further, the “F in rats (%)” value in series [1] stood at 83.9%.

The compound `Cc1cccnc1N(C(=O)c1ccc(C2=NOC(C)(C)C2=O)cc1)[C@@H]1CCCNC1` [WX002] gave a pIC50 against PCSK9 of over 5.00. The “F in rats (%)” value in series [1] came to 68.0%. `CC1(C)ON=C(c2ccc(C(=O)N(c3ccccn3)[C@@H]3CCCNC3)cc2)C1=O` [WX006] had a pIC50 at PCSK9 of over 5.00. For `Cc1cc(F)cnc1N(C(=O)c1ccc(C2=NOC(C)(C)C2=O)cc1)[C@@H]1CCCNC1` [WX008], the negative-log IC50 (pIC50) against PCSK9 is over 5.00. Take `COc1cccnc1N(C(=O)c1ccc(C2=NOC(C)(C)C2=O)cc1)[C@@H]1CCCNC1` [WX009]: the pIC50 against PCSK9 was over 5.00. With `Cc1cc(Cl)cnc1N(C(=O)c1ccc(C2=NOC(C)(C)C2=O)cc1)[C@@H]1CCCNC1` [WX011], the negative logarithm of the IC50 (pIC50) against PCSK9 was over 5.00. In the case of `Cc1cnc(N(C(=O)c2ccc(C3=NOC(C)(C)C3=O)cc2)[C@@H]2CCCNC2)c(C)c1` [WX012], the pIC50 against PCSK9 is over 5.00. Same read-out and setting: the result for `CC1(C)ON=C(c2ccc(C(=O)N(c3ncccc3F)[C@@H]3CCCNC3)cc2)C1=O` [WX013] reads over 5.00. Consider `Cc1ccnc(N(C(=O)c2ccc(C3=NOC(C)(C)C3=O)cc2)[C@@H]2CCCNC2)c1Cl` [WX015], for which the pIC50 on PCSK9 was over 5.00. Turning to `Cc1cc(C2=NOC(C)(C)C2=O)ccc1C(=O)N(c1ncccc1Cl)[C@@H]1CCCNC1` [WX021], the pIC50 at PCSK9 is over 5.00. Moreover, the “F in rats (%)” value in series [1] came to 37.7%.

The compound `Cc1cc(C(=O)N(c2ncccc2Cl)[C@@H]2CCCNC2)ccc1C1=NOC(C)(C)C1=O` [WX022] gave a pIC50 against PCSK9 of over 5.00. In turn, `Cc1cc(C2=NOC(C)(C)C2=O)ccc1C(=O)N(c1ncccc1C)[C@@H]1CCCNC1` [WX023] gave a pIC50 against PCSK9 of over 5.00. Regarding `Cc1cc(C(=O)N(c2ncccc2C)[C@@H]2CCCNC2)ccc1C1=NOC(C)(C)C1=O` [WX024], the pIC50 at PCSK9 was over 5.00. On PCSK9, `Cc1cccnc1N(C(=O)c1ccc(C2=NOC(C)(C)C2O)cc1)[C@@H]1CCCNC1` (stereo partly drawn) [WX025] showed a pIC50 of over 5.00.

`CC1(C)ON=C(c2ccc(C(=O)N(c3nccc4c3COC4)[C@@H]3CCCNC3)cc2)C1=O` [WX026] had a pIC50 on PCSK9 of over 5.00. At PCSK9, `Cc1cccnc1N(C(=O)c1ccc(C2=NOC(C)(C)C2=O)cc1F)[C@@H]1CCCNC1` [WX027] gave a pIC50 of over 5.00. Moreover, the “F in rats (%)” value in series [1] is given as 58.8%. In turn, `CC1(C)ON=C(c2ccc(C(=O)N(c3ncccc3-c3ccncc3)[C@@H]3CCCNC3)cc2)C1=O` [WX037] had a pIC50 on PCSK9 of over 5.00. Turning to `CC1(C)ON=C(c2ccc(C(=O)N(c3ncccc3-c3ccccc3)[C@@H]3CCCNC3)cc2)C1=O` [WX038], at PCSK9, the pIC50 was over 5.00. On PCSK9, `Cc1cccnc1N(C(=O)c1ccc(C2=NOC(C)(C)/C2=N\O)cc1)[C@@H]1CCCNC1` [WX039] showed a pIC50 of over 5.00. On PCSK9, `CO/N=C1/C(c2ccc(C(=O)N(c3ncccc3C)[C@@H]3CCCNC3)cc2)=NOC1(C)C` [WX040] had a pIC50 of over 5.00. Further, the “F in rats (%)” value in series [1] amounted to 56.3%. Consider `COCc1cccnc1N(C(=O)c1ccc(C2=NOC(C)(C)C2=O)cc1)[C@@H]1CCCNC1` [WX041], for which the pIC50 at PCSK9 was over 5.00.

For the origin of these results see patent publication US10513514B2, “Piperidine compounds as PCSK9 inhibitors” (SHENZHEN SALUBRIS PHARM CO LTD, priority 2017, dated 2019).
